Assays:
[1] = biological target: Carbonic anhydrase 2 (Bos taurus) (UniProt P00921); assay: Evaluation of binding constant to bovine carbonic anhydrase II, measured by fluorescence in 20 mM phosphate buffer (pH=7.5)
[2] = Partition coefficient (logD7.5); type: physicochemical; settings: octanol/water, pH 7.5
[3] = Evaluation of ionization constant between octanol and 20 mM phosphate buffer (pH =7.5); type: physicochemical; settings: octanol/20 mM phosphate buffer
[4] = biological target: Carbonic anhydrase 2 (Bos taurus) (UniProt P00921); assay: Compound was tested for the binding affinity towards Carbonic anhydrase II by competitive fluorescence assay with dansylamide

Chain of Carbonic anhydrase 2 (Bos taurus) (P00921 2-260 limits assumed): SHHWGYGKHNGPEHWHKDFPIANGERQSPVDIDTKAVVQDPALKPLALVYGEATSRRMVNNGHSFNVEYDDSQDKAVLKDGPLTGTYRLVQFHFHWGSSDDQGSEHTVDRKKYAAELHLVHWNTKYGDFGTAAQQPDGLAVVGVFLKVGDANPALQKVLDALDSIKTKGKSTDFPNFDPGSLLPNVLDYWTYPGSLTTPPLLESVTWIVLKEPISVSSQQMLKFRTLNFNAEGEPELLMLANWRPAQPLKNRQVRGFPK

SMILES	Kb [1] [M⁻¹]	logD [2]	pKa [3]	Kb [4] [M⁻¹]
CCCC(C)CC(=O)NCc1ccc(S(N)(=O)=O)cc1 (centres undefined)	5.7e+06	1.32	–	–
CC1(C)C(C(=O)NCc2ccc(S(N)(=O)=O)cc2)C1(C)C	1.1e+07	1.57	–	–
CCCCNC(=O)c1ccc(S(N)(=O)=O)cc1	6.3e+07	1.11	–	–
CC(=O)NCc1ccc(S(N)(=O)=O)cc1	–	–	10.2	–
NS(=O)(=O)c1ccc(CNC(=O)C(F)(F)C(F)(F)F)cc1	–	–	9.8	–
NS(=O)(=O)c1ccc(C(=O)NCC(F)(F)C(F)(F)F)cc1	1.8e+08	1.52	–	–
CCC(=O)NCc1ccc(S(N)(=O)=O)cc1	–	–	9.9	–
NS(=O)(=O)c1ccc(CNC(=O)CCC2CCCC2)cc1	1.2e+07	1.63	–	–
CCCCCC(=O)NCc1ccc(S(N)(=O)=O)cc1	5.1e+06	1.23	–	–
CCNC(=O)c1ccc(S(N)(=O)=O)cc1	5.9e+06	0.176	–	–
NS(=O)(=O)c1ccc(CNC(=O)C2CCCC2)cc1	6e+06	0.778	–	–
CCCCCCC(=O)NCc1ccc(S(N)(=O)=O)cc1	5.7e+06	1.46	–	–
NS(=O)(=O)c1ccc(CNC(=O)CC2CCCC2)cc1	7.6e+06	1.08	–	–
NS(=O)(=O)c1ccc(CNC(=O)C(F)(F)F)cc1	–	–	10.1	–
NS(=O)(=O)c1ccc(C(=O)NCC(F)(F)F)cc1	4.7e+07	0.845	–	–
NS(=O)(=O)c1ccc(CNC(=O)C2CCCCC2)cc1	7.6e+06	1.08	–	–
CN(C)C(=O)c1ccc(S(N)(=O)=O)cc1	1.1e+07	0.146	–	–
CCCN(CCC)C(=O)c1ccc(S(N)(=O)=O)cc1	1.9e+07	2.08	–	–
NS(=O)(=O)c1ccc(CNC(=O)CC2CCCCC2)cc1	1.3e+07	1.62	–	–
CCCNC(=O)c1ccc(S(N)(=O)=O)cc1	2.6e+07	0.531	–	–
CCN(CC)C(=O)c1ccc(S(N)(=O)=O)cc1	1.7e+07	0.929	–	–
NS(=O)(=O)c1ccc(C(=O)NCC(F)(F)C(F)(F)C(F)(F)F)cc1	1.1e+09	2.04	–	–
CCCCCCNC(=O)c1ccc(S(N)(=O)=O)cc1	1.3e+08	2.21	–	–
CCC(CC)C(=O)NCc1ccc(S(N)(=O)=O)cc1	2.9e+06	1	–	–
CCCCC(CC)C(=O)NCc1ccc(S(N)(=O)=O)cc1 (centres undefined)	7.1e+06	1.84	–	–
NS(=O)(=O)c1ccc(CNC(=O)C2CCCCCC2)cc1	1e+07	1.49	–	–
CC(C)CCC(=O)NCc1ccc(S(N)(=O)=O)cc1	4.8e+06	1.04	–	–
CCCCCCCC(=O)NCc1ccc(S(N)(=O)=O)cc1	–	1.84	–	1.2e+07
CC(C)(C)CC(=O)NCc1ccc(S(N)(=O)=O)cc1	7.1e+06	1.04	–	–
